{"source": "paper PMC8394412", "about": "“Identification and Characterization of Cannabidiol as an OX1R Antagonist by Computational and In Vitro Functional Validation” (Biomolecules, 2021)", "target": "T1, orexin 1 receptor (OX1R) (Homo sapiens, UniProt O43613)", "T1 construct": "gene HCRTR1", "T1 sequence (O43613 1-425)": "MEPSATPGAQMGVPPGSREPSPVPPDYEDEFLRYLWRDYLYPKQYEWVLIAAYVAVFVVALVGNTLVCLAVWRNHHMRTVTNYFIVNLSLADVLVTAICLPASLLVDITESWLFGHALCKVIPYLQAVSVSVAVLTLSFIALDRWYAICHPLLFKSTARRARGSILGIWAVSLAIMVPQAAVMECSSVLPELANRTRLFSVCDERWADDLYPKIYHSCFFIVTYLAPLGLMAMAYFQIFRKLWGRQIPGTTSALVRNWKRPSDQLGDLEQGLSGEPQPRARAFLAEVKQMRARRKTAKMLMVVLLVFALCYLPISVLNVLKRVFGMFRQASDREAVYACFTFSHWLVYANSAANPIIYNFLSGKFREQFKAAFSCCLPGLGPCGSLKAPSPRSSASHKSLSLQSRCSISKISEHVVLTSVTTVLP", "test": "[…]orexin-A radioligand displacement on OX1R-CHO membranes; functional Ca2+ antagonism IC50 […]", "type": "binding", "data": [{"compound": "C=C(C)[C@@H]1CCC(C)=C[C@H]1c1c(O)cc(CCCCC)cc1O", "note": "[CBD, cannabidiol]", "values": [{"measurement": "Ki", "value": "1.58 ± 0.2", "unit": "µM"}]}]}
